Values of other authors as cited in patent US6908630B2, “Combinations of sesquiterpene lactones and ditepene triepoxide lactones for synergistic inhibition of cyclooxygenase-2” (Metaproteomics, LLC, priority 2000, dated 2005).

Details: gastrointestinal disturbance, nausea and vomiting, hypotension, edema

For CC(C)[C@]12O[C@H]1[C@@H]1O[C@]13[C@]1(O[C@H]1C[C@H]1C4=C(CC[C@@]13C)C(=O)OC4)[C@@H]2O [Triptolide], the “patients showing some type of side effects” value is given as “Approximately 28%”.
